Measured values published in EP4553077A1 (Kinoteck Therapeutics Co., Ltd, priority 2022, dated 2024).

Tests used:
[1] = Pharmacokinetic test in rats; type: in vivo, male SD rats; conditions: rat, plasma, oral gavage administration, 10 mg/kg
Description: Rat pharmacokinetic experiments were performed using male SD rats, 180-220g, provided by Beijing Vital River Laboratory Animal Technology Co., Ltd. 3 rats that were fasted overnight were taken, and administered orally by gavage (10 mg/kg). Blood samples were collected before administration, as well as 5, 15, 30 min and 1, 2, 4, 6, 8, 24 h after administration; another 3 rats were taken and administered intravenously (1 mg/kg), blood samples were collected before administration, as well as 5, 15, 30 min and 1, 2, 4, 6, 8, 24 h after administration. Blood sample was centrifuged at 6800g, 2-8 °C for 6 min, and plasma was collected, and stored at -80 °C. Plasma of each time point was taken, 10 times the amount of 50% methanol acetonitrile solution containing internal standard was added, and mixed by vortex for 5 min, centrifuged at 18000 rpm at 4 °C for 10 min, and the supernatant was taken directly for LC-MS/MS analysis. The main pharmacokinetic parameters were analyzed using WinNonlin8.2 software for non compartmental model analysis. Table 3: pharmacokinetic test in rats results of test compounds

[2] = Rat liver cells metabolic stability; type: in vitro ADME; conditions: rat liver cells 0.5 × 10^6 cells/mL
Description: Test compound and control drug verapamil powder were prepared into […] stock solution using DMSO, and they were diluted with 50% acetonitrile/50% water to 100 µM working solution before use.
• 1) 49.5 mL Williams E Medium and 0.5 mL glutaMAX were mixed as incubation medium. The liver cell resuscitation solution and incubation solution were preheated in a 37 °C water bath for at least 15 min before use. • 2) A tube of liver cells stored at ultra-low temperature was taken and ensured that they remain in a low-temperature frozen state before resuscitation. The liver cells were placed quickly in a 37 °C water bath and shaken gently until all ice crystals were dispersed. • 3) The contents of the liver cells tubes were poured into a centrifuge tube containing 50 mL of resuscitation medium, and they were centrifuged at 100 g for 10 min. After centrifugation, the resuscitation medium was aspirated, and sufficient incubation medium was added to obtain a cell suspension with a cell density of approximately 1.0 × 10^6 cells/mL. • 4) AO/PI staining was used to count liver cells and determine viable cell density, the survival rate of liver cells must be greater than 75%. The liver cell suspension was diluted with incubation medium to a viable cell density of 0.5 × 10^6 cells/mL.
• 1) 198 µL live cell suspension was transferred to a 96 well deep well plate, and the deep well plate was placed on a vortex and preheat in the incubator for 10 min. • 2) 2 µL 100 µM test compound or positive control compound was added to each well for reaction initiation, and the deep well plate was placed back on the incubator vortex. • 3) The incubation plate was placed into the incubator for incubation. 25 µL suspension was taken at 0.5, 15, 30, 60, 90, and 120 min, and 6-fold (150 µL) acetonitrile containing internal standard quencher (100 nM alprazolam, 200 nM caffeine, and 100 nM toluenesulfonylbutamide) was added to a new 96 well plate to terminate the reaction. The plate was vortexed for 5 min and centrifuged at 3220 rpm and 4 °C for 45 min to precipitate the protein. 100 µL of supernatant was transferred to the sample plate, and 100 µL pure water was added and mixed well for UPLC-MS/MS analysis. All incubation systems were conducted in a dual parallel manner.
All data was calculated using Microsoft Excel software. Peak area was detected by extracting ion chromatogram. In vitro half-life (T1/2) and in vitro clearance rate (in µL/min/10^6 cells) of the parent drug were detected by linearly fitting of the natural logarithm of the […] percentage of the parent drug versus time. Table 6 Results of rat liver cell stability test

[3] = biological target: T1, CYP1A2 (Homo sapiens, UniProt P05177); assay: Cytochrome P450 inhibition in human liver microsomes
T1 sequence (P05177 1-516): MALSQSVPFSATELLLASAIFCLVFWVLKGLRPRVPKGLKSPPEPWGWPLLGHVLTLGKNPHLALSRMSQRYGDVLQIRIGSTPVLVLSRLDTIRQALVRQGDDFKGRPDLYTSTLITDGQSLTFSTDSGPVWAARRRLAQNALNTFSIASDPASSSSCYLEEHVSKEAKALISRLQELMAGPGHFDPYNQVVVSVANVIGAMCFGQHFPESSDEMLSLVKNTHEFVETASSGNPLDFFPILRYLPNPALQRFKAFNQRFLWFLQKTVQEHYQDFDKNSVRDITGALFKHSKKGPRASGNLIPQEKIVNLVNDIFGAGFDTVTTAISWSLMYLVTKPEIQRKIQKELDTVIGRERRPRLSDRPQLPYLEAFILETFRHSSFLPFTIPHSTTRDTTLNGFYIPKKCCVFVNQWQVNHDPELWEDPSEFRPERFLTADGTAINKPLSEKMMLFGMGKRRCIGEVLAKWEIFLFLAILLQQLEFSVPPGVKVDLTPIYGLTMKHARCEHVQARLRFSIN
Description: (§3) Preparation of positive control inhibitor and compound working solution: 16 µL inhibitor stock solution or compound stock solution for each CYP subtype were taken and added to 24 µL DMSO. Then, they were diluted gradually three times with diluent to obtain different concentrations of test sample/positive control inhibitor working solution (7 concentrations each except for blank)
(§4) Preparation of test sample group working solution: The human liver microsomal working solution was divided into 96 well plates at 796 µL per well, and then 4 µL test sample working solution was added.
(§5) Preparation of positive control group working solution: The human liver microsomal working solution was divided into 96 well plates at 199 µL per well, and then 1 µL positive control inhibitor working solution was added.
(§6) Blank solvent working solution preparation: The human liver microsomal working solution was divided into 96 well plates at 199 µL per well, and then 1 µL DMSO was added.
(§7) (a) 30 µL test sample/positive control inhibitor working solution or 30 µL blank solvent working solution per well were transferred into a 96 well plate, and 15 µL substrate working solution of different enzyme subtypes transferred into each well, and mixed evenly. (b) The above incubation plates and 4 x NADPH working solution were preheated at 37 °C for 5 min. (c) 15 µL preheated 4 × NADPH working solution per well was transferred into the incubation plate, and the reaction initiated, and continued to be incubated at 37 °C.
(§8) (d) After the reaction time was reached, 180 µL termination solution was added to terminate the reaction. […] (f) After centrifugation, 80 µL supernatant was taken and added to 120 µL ultrapure water, and after it was mixed evenly, LC-MS/MS was used to analyze the metabolites of the probe substrate.

[4] = biological target: CYP2C9 (Homo sapiens, UniProt P11712); assay: as above
Chain of CYP2C9 (P11712 whole entry): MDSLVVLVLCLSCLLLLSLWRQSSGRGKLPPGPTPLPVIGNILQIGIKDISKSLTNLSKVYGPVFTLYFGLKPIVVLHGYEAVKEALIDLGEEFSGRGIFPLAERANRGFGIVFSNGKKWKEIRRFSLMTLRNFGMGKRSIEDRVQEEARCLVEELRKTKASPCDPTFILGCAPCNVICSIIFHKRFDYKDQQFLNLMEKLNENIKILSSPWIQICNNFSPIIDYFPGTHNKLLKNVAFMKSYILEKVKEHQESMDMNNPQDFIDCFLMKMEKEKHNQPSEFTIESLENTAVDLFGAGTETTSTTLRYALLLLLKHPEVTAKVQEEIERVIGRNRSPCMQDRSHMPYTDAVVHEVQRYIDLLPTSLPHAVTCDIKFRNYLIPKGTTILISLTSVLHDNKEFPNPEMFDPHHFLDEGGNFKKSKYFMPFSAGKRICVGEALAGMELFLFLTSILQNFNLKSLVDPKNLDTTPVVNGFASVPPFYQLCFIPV
Description: as §3, §4, §5, §6, §7, §8

[5] = biological target: CYP2C19 (Homo sapiens, UniProt P33261); assay: as above
Chain of CYP2C19 (P33261 whole entry): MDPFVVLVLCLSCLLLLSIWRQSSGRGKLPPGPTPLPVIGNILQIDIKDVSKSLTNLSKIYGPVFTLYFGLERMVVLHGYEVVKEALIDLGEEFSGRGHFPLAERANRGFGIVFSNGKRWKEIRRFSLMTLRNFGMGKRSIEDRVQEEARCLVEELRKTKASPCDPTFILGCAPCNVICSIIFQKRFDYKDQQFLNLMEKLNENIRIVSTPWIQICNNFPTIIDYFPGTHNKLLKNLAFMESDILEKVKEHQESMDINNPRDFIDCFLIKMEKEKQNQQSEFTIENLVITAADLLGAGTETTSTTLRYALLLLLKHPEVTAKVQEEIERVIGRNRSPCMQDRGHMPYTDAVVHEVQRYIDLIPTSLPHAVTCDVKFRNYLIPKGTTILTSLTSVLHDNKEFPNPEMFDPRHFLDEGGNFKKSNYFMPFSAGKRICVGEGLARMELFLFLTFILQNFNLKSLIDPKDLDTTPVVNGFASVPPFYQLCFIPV
Description: as §3, §4, §5, §6, §7, §8

[6] = biological target: CYP2D6 (Homo sapiens, UniProt P10635); assay: as above
Chain of CYP2D6 (P10635 whole entry): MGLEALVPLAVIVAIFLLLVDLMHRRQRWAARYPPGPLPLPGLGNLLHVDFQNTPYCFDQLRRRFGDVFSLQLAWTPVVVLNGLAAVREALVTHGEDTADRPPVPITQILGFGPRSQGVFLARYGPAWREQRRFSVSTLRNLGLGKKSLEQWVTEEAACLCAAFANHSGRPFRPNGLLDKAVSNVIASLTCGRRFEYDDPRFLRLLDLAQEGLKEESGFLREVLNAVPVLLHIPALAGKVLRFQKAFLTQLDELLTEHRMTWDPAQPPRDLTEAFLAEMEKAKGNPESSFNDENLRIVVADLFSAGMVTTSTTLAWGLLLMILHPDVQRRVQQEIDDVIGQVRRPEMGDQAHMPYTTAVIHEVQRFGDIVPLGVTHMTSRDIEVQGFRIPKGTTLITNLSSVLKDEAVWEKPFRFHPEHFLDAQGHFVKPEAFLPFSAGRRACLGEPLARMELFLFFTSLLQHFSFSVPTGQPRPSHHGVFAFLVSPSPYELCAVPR
Description: as §3
(§9) Preparation of liver microsomal working solution: 300 µL human liver microsomes (20.0 mg/mL) was taken and added to 29700 µL PBS and mixed well, and the concentration of the prepared human liver microsomal working solution was 0.200 mg/mL.
(§10) Preparation of 4 x NADPH working solution: A certain weight of NADPH tetrasodium salt was weighted and dissolved to a suitable volume of PBS to obtain NADPH working solution, with a concentration of 8.00 mM.
as §4, §5, §6
(§11) (a) 30 µL test sample/positive control inhibitor working solution or 30 µL blank solvent working solution per well were transferred into a 96 well plate, and 15 µL substrate working solution of different enzyme subtypes transferred into each well, and mixed evenly. (b) The above incubation plates and 4 x NADPH working solution were preheated at 37 °C for 5 min. (c) 15 µL preheated 4 × NADPH working solution per well was transferred into the incubation plate, and the reaction initiated, and continued to be incubated at 37 °C. The incubation time is as follows:
as §8

[7] = biological target: CYP3A4 (Homo sapiens, UniProt P08684); assay: as above
Chain of CYP3A4 (P08684 whole entry): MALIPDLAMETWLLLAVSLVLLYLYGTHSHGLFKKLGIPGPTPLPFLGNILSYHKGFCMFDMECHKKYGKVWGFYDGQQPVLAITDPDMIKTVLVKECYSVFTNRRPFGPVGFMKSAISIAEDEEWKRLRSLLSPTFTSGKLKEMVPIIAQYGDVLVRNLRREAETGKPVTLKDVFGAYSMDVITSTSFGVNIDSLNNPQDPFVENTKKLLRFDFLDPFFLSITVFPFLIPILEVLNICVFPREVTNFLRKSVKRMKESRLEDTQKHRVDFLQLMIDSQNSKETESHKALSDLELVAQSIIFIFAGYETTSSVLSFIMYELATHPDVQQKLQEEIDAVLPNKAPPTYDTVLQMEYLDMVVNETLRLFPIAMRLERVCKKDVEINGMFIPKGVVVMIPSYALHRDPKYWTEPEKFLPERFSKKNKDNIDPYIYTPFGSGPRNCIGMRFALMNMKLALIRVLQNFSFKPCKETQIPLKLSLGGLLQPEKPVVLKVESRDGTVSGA
Description: as §3, §9, §10, §4, §5, §6, §11, §8

[8] = biological target: Ba/F3-TEL-FGFR2 (Homo sapiens, UniProt P21802+P41212); assay: Cell viability (proliferation inhibition) of Ba/F3 cells, CellTiter Glo; conditions: read-out: Ba/F3 cell FGFR2 (IC50 nM), 72 h
Chain of Ba/F3-TEL-FGFR2 (P21802 481-770 limits assumed, one chain of several): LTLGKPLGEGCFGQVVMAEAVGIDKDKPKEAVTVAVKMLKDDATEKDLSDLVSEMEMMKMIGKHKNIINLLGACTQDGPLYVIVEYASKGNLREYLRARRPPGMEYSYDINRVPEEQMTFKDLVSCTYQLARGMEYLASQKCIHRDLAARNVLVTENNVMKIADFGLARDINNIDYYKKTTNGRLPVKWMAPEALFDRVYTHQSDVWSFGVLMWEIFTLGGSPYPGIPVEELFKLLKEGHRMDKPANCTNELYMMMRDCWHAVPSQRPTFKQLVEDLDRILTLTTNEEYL

[9] = biological target: Ba/F3-TEL-FGFR1 (Homo sapiens, UniProt P11362+P41212); assay: as above; conditions: read-out: Ba/F3 cell FGFR1 (IC50 nM), 72 h
Chain of Ba/F3-TEL-FGFR1 (P11362 478-767 limits assumed, one chain of several): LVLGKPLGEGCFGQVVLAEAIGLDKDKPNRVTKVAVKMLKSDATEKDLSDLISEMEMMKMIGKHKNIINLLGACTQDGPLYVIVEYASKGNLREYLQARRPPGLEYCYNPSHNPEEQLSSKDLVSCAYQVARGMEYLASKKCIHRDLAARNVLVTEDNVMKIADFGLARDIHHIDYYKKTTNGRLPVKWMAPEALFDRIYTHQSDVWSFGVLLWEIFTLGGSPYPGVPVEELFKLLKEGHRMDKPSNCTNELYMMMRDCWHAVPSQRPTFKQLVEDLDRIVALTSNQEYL

[10] = biological target: Ba/F3-TEL-FGFR3 (Homo sapiens, UniProt P22607+P41212); assay: as above; conditions: read-out: Ba/F3 cell FGFR3 (IC50 nM), 72 h
Chain of Ba/F3-TEL-FGFR3 (P22607 472-761 limits assumed, one chain of several): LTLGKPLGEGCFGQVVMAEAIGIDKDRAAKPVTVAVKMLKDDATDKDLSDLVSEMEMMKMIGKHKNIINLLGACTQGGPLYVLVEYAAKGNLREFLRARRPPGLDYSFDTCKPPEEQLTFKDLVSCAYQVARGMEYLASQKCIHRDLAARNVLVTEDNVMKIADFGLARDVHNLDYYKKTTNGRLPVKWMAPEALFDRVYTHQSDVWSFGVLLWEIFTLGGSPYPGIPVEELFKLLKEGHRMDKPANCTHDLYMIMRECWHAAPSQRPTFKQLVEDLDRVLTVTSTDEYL

[11] = Human liver microsomes stability test; type: in vitro ADME; conditions: human liver microsomes 0.5 mg/mL, compound 1.0 µM
Description: Human liver microsomes stability test was performed by co-incubating compounds with human liver microsomes in vitro. Firstly, a 10 mM stock solution of the test compound in DMSO solvent was prepared, and then the compound was diluted with methanol to a 0.15 mM working solution. A certain amount PBS, 12mM MgCl2, human liver microsomes (Corning), and compound working solution were mixed to achieve a compound concentration of 1.0 µM, a human liver microsome concentration of 0.5 mg/mL, and the MgCl2 concentration of 3 mM in the reaction system. A deep well plate was taken, 270 µL microsomal buffer mixture solution was added to each well, and then 30 µL preheated 10 mM NADPH solution was added to initiate the reaction, and it was incubated at 37 °C. At 0, 5, 15, 30, and 60 min of incubation, 200 µL methanol: acetonitrile = 1: 1 containing an internal standard was added to the corresponding well to terminate the reaction. After the reaction was terminated at the last 60 min, the deep well plate was subjected to vortex vibration for 5 min (600 rpm/min), and then centrifugated for 10 min. After centrifugation, the supernatant was taken, and purified water was added at a 1:1 ratio for LC-MS/MS detection, and the peak area ratio of the compound to the internal standard at each time point was obtained, and the peak area ratio of the compound at 5, 15, 30, and 60 min was compared with the peak area ratio at 0 minute to calculate the remaining percentage of the compound at each time point, and T1/2 was calculated using Graphpad 7 software. Table 2 Results of human liver microsomes stability test

[12] = system: A204 cells; assay: Proliferation inhibition, CCK-8 colorimetric method; type: cell-based; conditions: Homo sapiens, 72 h
Description: (§1) CCK-8 (Bimake/B34304) colorimetric method was used to detect the in vitro proliferation inhibitory effect of compounds on suspended or adherent cells in this experiment. The specific experimental steps were as follows: • 1) Cell plating: SNU16 and A204 tumor cells (cells from Shanghai Institute of Organic Chemistry, Chinese Academy of Sciences) in the logarithmic growth phase were digested and centrifuged for trypan blue counting, and the cells were seeded into a transparent 96 well plate at a density of 4000 cells/100 µ 1/well. […] The test compound and control compound stock solution were diluted with the corresponding culture medium required for cell culture (with or without solvent DMSO) to obtain a series of working solutions, with concentrations of twice the final concentration. The solvent DMSO contents in each concentration group were consistent with that of the solvent control group. The final concentration of A204 cells started at 10 µM and was diluted twice.
(§2) Calculation of cell survival rate: Cell survival rate (%)=[(As-Ac)/(Ab-Ac)] × 100%] (As: experimental well; Ab: Solvent control well; Ac: Blank well).

[13] = system: SNU16 cells; assay: as above; type: cell-based; conditions: Homo sapiens, SNU-16, 72 h
Description: as §1, §2

`[2H]C([2H])([2H])n1c(-c2ccc(NC(=O)C(=C)C)cc2F)c(-c2ccc(N=S3(=O)CCCC3)cc2)c2c(N)ncnc21` [Compound 83, N-(4-(4-amino-7-(methyl-d3)-5-(4-(1-oxotetrahydro-1 λ^6-thiophene-1-imino)phenyl)-7H-pyrrolo[2,3-d]pyrimidin-6-yl)-3-fluorophenyl)methacrylamide] gave an AUC(0-t) [1] of 1480 ng·h/mL, a Cmax [1] of 414 ng/mL and a Tmax [1] of 19.8 min. It also gave a half-life [1] of 112 min, a hepatocyte CLint ([2]; hepatocytes, read-out: in vitro CLint (µL/min/10^6 cells)) of 37.3 µL/min/1e6 cells and a half-life ([2]; hepatocytes, read-out: in vitro t1/2) of 37.1 min. The “Remaining percentage of compound after 60 min of incubation (%)” value (from here on “Remaining percentage of compound … (%)”) [2] was 35.86%, the IC50 [3] was over 10 µM and the IC50 [4] was 14.4 µM. For the same compound, the IC50 [5] was 14.1 µM, the IC50 [6] was 8.77 µM and the IC50 [7] was 11.6 µM. For the same compound, the IC50 [8] was 1.1 nM, the IC50 [9] was 661 nM and the IC50 [10] was 319 nM.
With `C=C(C)C(=O)Nc1ccc(-c2c(-c3ccc(N=S4(=O)CCCCC4)cc3)c3c(N)ncnc3n2C)cc1` [Compound 4, N-(4-(4-amino-7-methyl-5-(4-(1-oxotetrahydro-2H-1λ^6-thiopyran-1-imino)phenyl) -7H-pyrrolo [2,3-d]pyrimidin-6-yl)phenyl) methacrylamide] the CLint scaled at 1 µM [11] was 14.6 mL/min/kg, the half-life at 1 µM [11] was 85.6 min and the “Remaining percentage of compound … (%)” value ([11]; 60 min) was 61.6%. The IC50 [8] was 9.9 nM, the IC50 [9] was 2370 nM and the IC50 [10] was 3360 nM.
In the case of `C=C(C)C(=O)Nc1ccc(-c2c(-c3ccc(N=S(=O)(CC)CC)cc3)c3c(N)ncnc3n2C)c(F)c1` [Compound 58], the AUC(0-t) [1] is reported as 1420 ng·h/mL, the Cmax [1] is reported as 604 ng/mL and the Tmax [1] is reported as 30 min. For the same compound, the half-life [1] was 191 min, the IC50 [12] was 1270 nM and the IC50 [13] was 9.52 nM. For the same compound, the IC50 [3] was over 10 µM, the IC50 [4] was 29.7 µM and the IC50 [5] was 5.42 µM. The IC50 [6] was 9.81 µM, the IC50 [7] was over 10 µM and the IC50 [8] was 3 nM. For the same compound, the IC50 [9] was 2030 nM and the IC50 [10] was 442 nM.
Work on `C=C(C)C(=O)Nc1ccc(-c2c(-c3ccc(N=S(=O)(CC)CC)c(F)c3)c3c(N)ncnc3n2C)cc1` [Compound 9, N-(4-(4-amino-5-(4-(diethyl (oxo) 1 λ^6-sulfanylidene) -3-fluorophenyl) -7-methyl 7H-pyrrolo [2,3-d]pyrimidin-6-yl) - phenyl) methacrylamide] yielded an IC50 [6] of 24.6 µM, an IC50 [7] of 13.5 µM and an IC50 [8] of 14.9 nM.
Compound `C=C(C)C(=O)Nc1ccc(-c2c(-c3ccc(N=S4(=O)CCCC4)c(F)c3)c3c(N)ncnc3n2C)cc1` [Compound 33, N-(4-(4-amino-5-(3-fluoro-4-((1-oxotetrahydro-1 λ^6-thiophene-1-ylidene)amino)phenyl) -7-methyl-7H-pyrrolo [2,3-d]pyrimidin-6-yl)phenyl) methacrylamide] has an AUC(0-t) ([1]; male, SD) of 778 ng·h/mL, a Cmax ([1]; male, SD) of 306 ng/mL and a Tmax ([1]; male, SD) of 25.2 min. The half-life ([1]; male, SD) was 79.2 min, the IC50 [6] was 9.52 µM and the IC50 [7] was 19.2 µM. The IC50 [8] was 11.2 nM, the IC50 [9] was 2310 nM and the IC50 [10] was 1290 nM.
In the case of `C=C(C)C(=O)Nc1ccc(-c2c(-c3ccc(N=S4(=O)CCCC4)c(F)c3)c3c(N)ncnc3n2C)c(F)c1` [Compound 23, N-(4-(4-amino-5-(3-fluoro-4-((1-oxotetrahydro-1 λ^6-thiophene-1-ylidene)amino)phenyl) -7-methyl-7H-pyrrolo [2,3-d]pyrimidin-6-yl) -3-fluorophenyl) methacrylamide], the “Remaining percentage of compound … (%)” value [2] is reported as 24.45%, the hepatocyte CLint at 1 µM ([2]; rat liver cells (cryopreserved hepatocytes in suspension), read-out: in vitro CLint (µL/min/10^6 cells)) is reported as 48.4 µL/min/1e6 cells and the half-life at 1 µM ([2]; rat liver cells (cryopreserved hepatocytes in suspension), read-out: in vitro t1/2) is reported as 28.6 min. It also gave an IC50 [12] of 618 nM, an IC50 [13] of 2.4 nM and an IC50 [8] of 0.7 nM. The IC50 [9] was 568 nM.
With `C=C(C)C(=O)Nc1ccc(-c2c(-c3ccc(N=S4(=O)CCC4)c(F)c3)c3c(N)ncnc3n2C)cc1` [Compound 56] the IC50 [6] was 5.54 µM, the IC50 [7] was 13.2 µM and the IC50 [8] was 12.6 nM.
